Data published in PubChem BioAssay AID1259407 (Chemical Carcinogenesis Research Information System (CCRIS), 2018).
Activity calls are given as the source filed them. The rule behind the calls is not given here.

Test system: CCRIS mutagenicity, Ames/micronucleus/aberration tests
Assay: CCRIS mutagenicity studies
[1] = Test System: AMES SALMONELLA TYPHIMURIUM, Strain/Indicator: TA98, Metabolic Activation: HAMSTER, LIVER, S-9, AROCLOR 1254 (10%), Method: PREINCUBATION
[2] = Test System: AMES SALMONELLA TYPHIMURIUM, Strain/Indicator: TA98, Metabolic Activation: NONE, Method: PREINCUBATION
[3] = Test System: AMES SALMONELLA TYPHIMURIUM, Strain/Indicator: TA98, Metabolic Activation: RAT, LIVER, S-9, AROCLOR 1254 (10%), Method: PREINCUBATION
[4] = Test System: AMES SALMONELLA TYPHIMURIUM, Strain/Indicator: TA100, Metabolic Activation: HAMSTER, LIVER, S-9, AROCLOR 1254 (10%), Method: PREINCUBATION
[5] = Test System: AMES SALMONELLA TYPHIMURIUM, Strain/Indicator: TA100, Metabolic Activation: NONE, Method: PREINCUBATION
[6] = Test System: AMES SALMONELLA TYPHIMURIUM, Strain/Indicator: TA100, Metabolic Activation: RAT, LIVER, S-9, AROCLOR 1254 (10%), Method: PREINCUBATION
[7] = Test System: AMES SALMONELLA TYPHIMURIUM, Strain/Indicator: TA1535, Metabolic Activation: HAMSTER, LIVER, S-9, AROCLOR 1254 (10%), Method: PREINCUBATION
[8] = Test System: AMES SALMONELLA TYPHIMURIUM, Strain/Indicator: TA1535, Metabolic Activation: NONE, Method: PREINCUBATION
[9] = Test System: AMES SALMONELLA TYPHIMURIUM, Strain/Indicator: TA1535, Metabolic Activation: RAT, LIVER, S-9, AROCLOR 1254 (10%), Method: PREINCUBATION
[10] = Test System: AMES SALMONELLA TYPHIMURIUM, Strain/Indicator: TA1537, Metabolic Activation: HAMSTER, LIVER, S-9, AROCLOR 1254 (10%), Method: PREINCUBATION
[11] = Test System: AMES SALMONELLA TYPHIMURIUM, Strain/Indicator: TA1537, Metabolic Activation: NONE, Method: PREINCUBATION
[12] = Test System: AMES SALMONELLA TYPHIMURIUM, Strain/Indicator: TA1537, Metabolic Activation: RAT, LIVER, S-9, AROCLOR 1254 (10%), Method: PREINCUBATION

Row | SMILES | mutagenic call [1] | mutagenic call [2] | mutagenic call [3] | mutagenic call [4] | mutagenic call [5] | mutagenic call [6] | mutagenic call [7] | mutagenic call [8] | mutagenic call [9] | mutagenic call [10] | mutagenic call [11] | mutagenic call [12] | further results
1 | COc1cc(-c2ccc(N/N=C3\C=C(S(=O)(=O)O)c4ccccc4C3=O)c(OC)c2)ccc1N/N=C1/C=C(S(=O)(=O)O)c2ccccc2C1=O | inactive; negative | inactive; negative | inactive; negative | inactive; negative | inactive; negative | inactive; negative | inactive; negative | inactive; negative | inactive; negative | inactive; negative | inactive; negative | inactive; negative | mutagenic call (Test System: AMES SALMONELLA TYPHIMURIUM, Strain/Indicator: TA1538, Metabolic Activation: RAT, LIVER, S-9, AROCLOR 1254, Method: STANDARD PLATE): inactive; negative
2 | COc1cc(OC)c2c(c1)O[C@@H]1OC=C[C@H]21 |  | inactive; negative |  |  | active; positive |  |  |  |  |  |  |  | mutagenic call (Test System: AMES SALMONELLA TYPHIMURIUM, Strain/Indicator: TA98, Metabolic Activation: RAT, LIVER, S-9, AROCLOR 1254, Method: PREINCUBATION): active; positive; mutagenic call (Test System: AMES SALMONELLA TYPHIMURIUM, Strain/Indicator: TA100, Metabolic Activation: RAT, LIVER, S-9, AROCLOR 1254, Method: PREINCUBATION): active; positive
3 | O=CC(Cl)Cl |  |  |  |  |  |  |  |  |  |  |  |  | mutagenic call (Test System: CHINESE HAMSTER V-79, Strain/Indicator: V-79/OUABAIN, Metabolic Activation: NONE): inactive; negative; mutagenic call (Test System: UDS HUMAN CELLS, Strain/Indicator: EUE LINE/THY INCORP, Metabolic Activation: NONE, Method: AUTORADIOGRAPHY): inactive; negative
4 | CNP(=S)(N1CC1)N1CC1 |  |  |  |  |  |  |  |  |  |  |  |  | mutagenic call (Test System: AMES SALMONELLA TYPHIMURIUM, Strain/Indicator: G46, Metabolic Activation: HOST MEDIATED, Method: STANDARD PLATE): active; positive
5 | C/C(C=O)=C\c1ccccc1 | inactive; negative | inactive; negative | inactive; negative | inactive; negative | inactive; negative | inactive; negative | inactive; negative | inactive; negative | inactive; negative | inactive; negative | inactive; negative | inactive; negative | mutagenic call (Test System: AMES SALMONELLA TYPHIMURIUM, Strain/Indicator: TA100, Metabolic Activation: RAT LIVER S-9, AROCLOR 1254, Method: PREINCUBATION): inactive; negative; mutagenic call (Test System: AMES SALMONELLA TYPHIMURIUM, Strain/Indicator: TA102, Metabolic Activation: MOUSE LIVER S-9, AROCLOR 1254, Method: PREINCUBATION): inactive; negative; mutagenic call (Test System: AMES SALMONELLA TYPHIMURIUM, Strain/Indicator: TA102, Metabolic Activation: NONE, Method: PREINCUBATION): inactive; negative; mutagenic call (Test System: AMES SALMONELLA TYPHIMURIUM, Strain/Indicator: TA102, Metabolic Activation: RAT LIVER S-9, AROCLOR 1254, Method: PREINCUBATION): inactive; negative; mutagenic call (Test System: AMES SALMONELLA TYPHIMURIUM, Strain/Indicator: TA104, Metabolic Activation: MOUSE LIVER S-9, AROCLOR 1254, Method: PREINCUBATION): inactive; negative; mutagenic call (Test System: AMES SALMONELLA TYPHIMURIUM, Strain/Indicator: TA104, Metabolic Activation: NONE, Method: PREINCUBATION): inactive; negative; mutagenic call (Test System: AMES SALMONELLA TYPHIMURIUM, Strain/Indicator: TA104, Metabolic Activation: RAT LIVER S-9, AROCLOR 1254, Method: PREINCUBATION): inactive; negative
6 | ONc1ccc2c(c1)Cc1ccccc1-2 |  |  |  |  |  |  |  |  |  |  |  |  | mutagenic call (Test System: AMES SALMONELLA TYPHIMURIUM, Strain/Indicator: TA98, Metabolic Activation: NONE, Method: STANDARD PLATE): active; positive; mutagenic call (Test System: AMES SALMONELLA TYPHIMURIUM, Strain/Indicator: TA98, Metabolic Activation: RAT, LIVER, S-9, AROCLOR 1254, Method: STANDARD PLATE): active; positive; mutagenic call (Test System: AMES SALMONELLA TYPHIMURIUM, Strain/Indicator: TA98, Metabolic Activation: S-9, Method: STANDARD PLATE): active; positive; mutagenic call (Test System: AMES SALMONELLA TYPHIMURIUM, Strain/Indicator: TA100, Metabolic Activation: NONE, Method: STANDARD PLATE): active; positive; mutagenic call (Test System: AMES SALMONELLA TYPHIMURIUM, Strain/Indicator: TA100, Metabolic Activation: S-9, Method: STANDARD PLATE): active; positive; mutagenic call (Test System: AMES SALMONELLA TYPHIMURIUM, Strain/Indicator: TA1538, Metabolic Activation: NONE, Method: STANDARD PLATE): active; positive; mutagenic call (Test System: AMES SALMONELLA TYPHIMURIUM, Strain/Indicator: YG1020, Metabolic Activation: NONE, Method: PREINCUBATION): active; positive; mutagenic call (Test System: AMES SALMONELLA TYPHIMURIUM, Strain/Indicator: YG1024, Metabolic Activation: NONE, Method: PREINCUBATION): active; positive; mutagenic call (Test System: AMES SALMONELLA TYPHIMURIUM, Strain/Indicator: YG1025, Metabolic Activation: NONE, Method: PREINCUBATION): active; positive; mutagenic call (Test System: AMES SALMONELLA TYPHIMURIUM, Strain/Indicator: YG1029, Metabolic Activation: NONE, Method: PREINCUBATION): active; positive; mutagenic call (Test System: CHINESE HAMSTER OVARY, Strain/Indicator: CHO-K1-BH4 (HGPRT), Metabolic Activation: NONE, Method: SUSPENSION): active; positive; mutagenic call (Test System: E. COLI, Strain/Indicator: WP2, Metabolic Activation: NONE, Method: PREINCUBATION): active; positive; mutagenic call (Test System: E. COLI, Strain/Indicator: WP2 UVRA, Metabolic Activation: NONE, Method: PREINCUBATION): active; positive
